Source: patent US5616732A, “Intermediates for difluoroprostacyclins and methods for their production” (Asahi Glass Company Ltd., priority 1994, dated 1997)
In brackets after ≈: the same amount, converted by molar mass. Read-outs that look alike come from different tables or passages of the source.

What was measured:
human platelets = assay: Platelet aggregation inhibitory activities in vitro (ADP-induced, human platelet-rich plasma); format: cell-based; details: for IC50: Homo sapiens, Platelet, ADP final concentration 4 μM, 37° C.; for platelet aggregation inhibitory activities (in words): compared with natural type prostacyclin or other compounds
Method: Platelet aggregation inhibitory activities of test compounds in vitro were measured by using human platelets.
Into a plastic container containing one volume of a 3.8% sodium citrate solution, 9 volumes of blood of a healthy person was collected, and the container was gently turned over for admixing. The mixture was centrifugally separated at 1,000 rpm for 10 minutes at room temperature, whereupon the supernatant was taken as a platelet-rich plasma (PRP). The lower layer was further centrifugally separated at 3,000 rpm for 15 minutes at room temperature, whereupon the supernatant was taken as a platelet-poor plasma (PPP). PRP was diluted with PPP so that the number of platelets became about 30×10^4 /μl. An aggregometer was calibrated, and then 200 μl of PRP thus prepared was heated at 37° C. for one minute. Then, 25 μl of a solution obtained by diluting a test compound with a physiological sodium chloride solution, was added thereto, and the mixture was heated at 37° C. for one minute. Then, […] of an adenosine-5'-1.5 sodium diphosphate (ADP, Sigma) solution was added thereto so that the final concentration would be 4 μM, whereby the change in transmittance was recorded by the aggregometer. The transmittance was measured with respect to the solution immediately after dissolving the test compound in the physiological sodium chloride solution and the solution after leaving it at 25° C. for 24 hours. The solution of the test compound was dissolved in a physiological sodium chloride solution and then used by diluting it with a physiological sodium chloride solution.
Aggregation inhibition (%)=(1-T/T0)×100
T0 : Transmittance in the case where the physiological sodium chloride solution was added.
T: Transmittance in the case where the test compound was added.

[1] = Stability test in an aqueous solution; format: physicochemical; details: for half-life / remaining at 168 h / remaining at 480 h: physiological saline, 25° C., 10 μg/ml in physiological sodium chloride solution; for remaining at 168 h: 7 days, read-out: Remaining ratio 7 days; for remaining at 480 h: 20 days, read-out: Remaining ratio 20 days
Method: A test compound was dissolved in ethanol to a concentration of 1 mg/ml. Then, it was diluted with a physiological sodium chloride solution to obtain a solution having a concentration of 10 μg/ml. The solution was stored at 25° C., and the remaining ratio of the test compound was measured as time passed. The remaining ratio was quantitatively analyzed by an internal standard (methyl benzoate) method using high performance liquid chromatography (Shimadzu LC9A, SPC-6AU; Milipore 805-DS). The column used was YMC AM312 (ODS), and the eluent used was a solvent mixture of acetonitrile and a 1% triethylamine-phosphoric acid buffer solution (pH6.3).

[2] = cited from earlier work
[3] = solution immediately after dissolving, read-out: IC50 Immediately after preparation
[4] = solution left at 25° C. for 24 hours, read-out: IC50 24 hours later

Compound | IC50 (human platelets; [3]) | IC50 (human platelets; [4]) | half-life [1] | remaining at 168 h [1] | remaining at 480 h [1] | half-life ([2]; as mentioned above, conditions not restated) | half-life in an aqueous solution ([2]; pH7.48 at 25° C.) | platelet aggregation inhibitory activities (in words) (human platelets) | half-life ([2]; reported in literature) | physiological activities (in words) (human platelets; stated generally as physiological activities) | chemical stability (in words) [1]
CCCCC[C@H](O)/C=C/[C@@H]1[C@H]2C/C(=C/CCCC(=O)O)O[C@H]2C[C@H]1O [natural type prostacyclin] |  |  |  |  |  | about 10 minutes | 0.00729 days |  |  |  | 
CCC#CCC(C)[C@H](O)/C=C/[C@@H]1[C@@H]2[C@H](C[C@H]1O)O/C(=C\CCCC(=O)O)C2(F)F (stereo partly drawn) [Compound 15, sodium 5-[(1S,5R,6R,7R)-2-oxa-4,4-difluoro-7-hydroxy-6-{(3S,4RS)-3-hydroxy-4-methyl-E-1-nonen-6-ynyl}bicyclo-[3.3.0]octan-3-ylidene]pentanoate] | 0.00079 µg/mL | 0.00078 µg/mL | > 90 days | 98.9% | 97.8% |  |  | even higher activities than natural type prostacyclin |  |  | 
O=C(O)CCC/C=C1\O[C@H]2C[C@@H](O)[C@H](/C=C/[C@@H](O)C3CCCC3)[C@H]2C1(F)F [Compound 13, sodium 5-[(1S,5R,6R,7R)-2-oxa-4,4-difluoro-7-hydroxy-6-{(3S)-3-cyclopentyl-3-hydroxy-E-1-propenyl}bicylco[3.3.0]octan-3-ylidene]pentanoate] | 0.0663 µg/mL | 0.0629 µg/mL | > 90 days | 100% | 98% |  |  |  |  |  | 
CCC#CC[C@H](C)[C@H](O)/C=C/[C@@H]1[C@@H]2[C@H](C[C@H]1O)O/C(=C\CCCC(=O)O)C2(F)F [Compound 17, sodium 5-[(1S,5R,6R,7R)-2-oxa-4,4-difluoro-7-hydroxy-6-{(3S,4S)-3-hydroxy-4-methyl-E-1-nonen-6-ynyl}bicyclo[3.3.0]octan-3-ylidene]pentanoate] | 0.00038 µg/mL | 0.00039 µg/mL | > 90 days | 102% | 100% |  |  | even higher activities than natural type prostacyclin |  |  | 
CCCC[C@H](C)C[C@H](O)/C=C/[C@@H]1[C@@H]2[C@H](C[C@H]1O)O/C(=C\CCCC(=O)O)C2(F)F [Compound 11, sodium 5-[(1S,5R,6R,7R)-2-oxa-4,4-difluoro-7-hydroxy-6-{(3S,5S)-3-hydroxy-5-methyl-E-1-nonenyl}bicyclo[3.3.0]octan-3-ylidene]pentanoate] | 0.0086 µg/mL | 0.0078 µg/mL | > 90 days | 102% | 96.8% |  |  | activities close to natural type prostacyclin |  |  | 
CCCCC[C@H](O)C#C[C@@H]1[C@H]2C/C(=C/CCCC(=O)O)O[C@H]2C(F)(F)[C@H]1O [10,10-difluoro-13,14-dehydroprostacyclin] |  |  |  |  |  |  |  |  | about 24 hours |  | 

Further lines, with some results ahead:

IC50 (human platelets; [3]) | IC50 (human platelets; [4]) | half-life [1] | remaining at 168 h [1] | remaining at 480 h [1] | Compound | half-life ([2]; as mentioned above, conditions not restated) | half-life in an aqueous solution ([2]; pH7.48 at 25° C.) | platelet aggregation inhibitory activities (in words) (human platelets) | half-life ([2]; reported in literature) | physiological activities (in words) (human platelets; stated generally as physiological activities) | chemical stability (in words) [1]
0.0087 µg/mL | 0.0089 µg/mL | > 90 days | 101% | 100% | Cc1cccc(C[C@H](O)/C=C/[C@@H]2[C@@H]3[C@H](C[C@H]2O)O/C(=C\CCCC(=O)O)C3(F)F)c1 [Compound 21, sodium 5-[(1S,5R,6R,7R)-2-oxa-4,4-difluoro-7-hydroxy-6-{(3S)-3-hydroxy-4-(3-methylphenyl)-E-1-butenyl}bicyclo[3.3.0]octan-3-ylidene]pentanoate] |  |  |  |  |  | 
0.0561 µg/mL | 0.0604 µg/mL | > 90 days | 99.3% | 97.2% | CCCCC[C@H](O)/C=C/[C@@H]1[C@@H]2[C@H](C[C@H]1O)O/C(=C\CCCC(=O)O)C2(F)F [Compound 19, sodium 5-[(1S,5R,6R,7R)-2-oxa-4,4-difluoro-7-hydroxy-6-{(3S)-3-hydroxy-E-1-octenyl}bicyclo[3.3.0]octan-3-ylidene]pentanoate] |  |  |  |  |  | 
0.0021 µg/mL (≈ 0.00596 µM) | > 0.2 µg/mL |  |  |  | CCCCC[C@H](O)/C=C/[C@@H]1[C@H]2C/C(=C/CCCC(=O)O)O[C@H]2C[C@H]1O [PGI2 Na, reference compound] |  |  |  |  |  | 
> 0.2 µg/mL | > 0.2 µg/mL | > 90 days | 99.1% | 99.3% | Cc1cccc(C[C@@H](O)/C=C/[C@@H]2[C@@H]3[C@H](C[C@H]2O)O/C(=C\CCCC(=O)O)C3(F)F)c1 [Compound 29, sodium 5-[(1S,5R,6R,7R)-2-oxa-4,4-difluoro-7-hydroxy-6-{(3R)-3-hydroxy-4-(3-methylphenyl)-E-1-butenyl}bicyclo[3.3.0]octan-3-ylidene]pentanoate] |  |  |  |  |  | 
0.027 µg/mL | 0.0281 µg/mL | > 90 days | 101% | 99.8% | CCC#CCC(C)[C@@H](O)/C=C/[C@@H]1[C@@H]2[C@H](C[C@H]1O)O/C(=C\CCCC(=O)O)C2(F)F (stereo partly drawn) [Compound 25, sodium 5-[(1S,5R,6R,7R)-2-oxa-4,4-difluoro-7-hydroxy-6-{(3R,4RS)-3-hydroxy-4-methyl-E-1-none-6-ynyl}bicyclo[3.3.0]octan-3-ylidene]pentanoate] |  |  |  |  |  | 
0.059 µg/mL (≈ 0.142 µM) | 0.0582 µg/mL (≈ 0.14 µM) | > 90 days | 100% | 100% | CCCC[C@H](C)C[C@@H](O)/C=C/[C@@H]1[C@@H]2[C@H](C[C@H]1O)O/C(=C\CCCC(=O)O)C2(F)F [Compound 23] |  |  |  |  |  | 
0.0084 µg/mL (≈ 0.0204 µM) | 0.008 µg/mL (≈ 0.0194 µM) | > 90 days | 99.5% | 100% | CCC#CC[C@H](C)[C@@H](O)/C=C/[C@@H]1[C@@H]2[C@H](C[C@H]1O)O/C(=C\CCCC(=O)O)C2(F)F [Compound 27] |  |  | activities close to natural type prostacyclin |  |  | 
0.0737 µg/mL | 0.0758 µg/mL | > 90 days | 99.5% | 97% | CCCCC[C@H](O)C#C[C@@H]1[C@@H]2[C@H](C[C@H]1O)O/C(=C\CCCC(=O)O)C2(F)F [Compound 31, sodium 5-[(1S,5R,6R,7R)-2-oxa-4,4-difluoro-7-hydroxy-6-{(3S)-3-hydroxy-1-octynyl}bicyclo[3.3.0]octan-3-ylidene]pentanoate, reference compound] |  |  | low activities as compared with other compounds |  | physiological activities are inadequate and substantially lower than natural type prostacyclin | chemical stability substantially equal to other compounds
